Experimental data as given in patent US8030547B2, “Gene coding for acetolactate synthase” (priority 2002, dated 2011).
Values joined by “and” are separate entries in the source; they are usually repeats but may differ in a detail not shown here. Identical values can stand only once.

How the values were obtained:
Type in all cases: biochemical, rice (Oryza sativa var. Kinmaze)
[1] = molecular target: T1, GST fusion R172S mutant ALS protein (Oryza sativa subsp. japonica, UniProt Q6K2E8, R172S); assay: Herbicide sensitivity of ALS protein expressed in E. coli (crude enzyme solution), R172S; conditions: for RS ratio: R172S mutant vs wild type
T1 construct: an expression vector having the full-length wild type ALS cDNA incorporated into the Eco RI site of pGEX-2T; made in house; host or cells: E. coli JM109, pGEX-2T(ALS R172S mutant); crude supernatant
Description: (§1) ALS activity resulting from the mutant ALS protein contained in the eluted fractions apportioned into each test tube for apportioning was measured as follows. A reaction solution to be used in a measurement reaction was prepared by mixing an eluted fraction to be measured with a solution comprising 20 mM sodium pyruvate, 0.5 mM TPP, 0.5 mM MgCl2, 10 μM FAD and 20 mM potassium phosphate buffer (pH 7.5). One ml of this reaction solution was used. After the eluted fraction to be measured was added, the measurement reaction was performed at 30° C. for 40 to 60 minutes. Then, the reaction was stopped by addition of 0.1 ml of 6N sulfuric acid (or 0.25 N sodium hydroxide).
(§2) After the reaction was stopped, the reaction solution was incubated at 60° C. for 10 minutes, thereby converting acetolactate contained in the reaction solution to acetoin.
(§3) Then, to quantify acetoin contained in the reaction solution, 1 ml of 0.5% (w/v) creatine and 1 ml of 5% (w/v) α-naphthol dissolved in 2.5 N sodium hydroxide was added to the reaction solution, followed by incubation at 37° C. for 10 minutes. Acetoin was then quantified by color comparison of the absorbance (at 525 nm) of the reaction solution, thereby evaluating ALS activity. In addition, since the reaction solution contained a small amount of sodium pyruvate, reaction time 0 was used as control.
(§4) E. coli transformed with pGEX-2T(ALS-wild) constructed in Example 3(5), E. coli transformed with pGEX-2T(ALS-W548L mutant) constructed in Example 5, E. coli transformed with pGEX-2T(ALS-S627I mutant) constructed in Example 5, E. coli transformed with pGEX-2T(ALS P171H mutant) constructed in Example 6, E. coli transformed with pGEX-2T(ALS R172S mutant) constructed in Example 6, E. coli transformed with pGEX-2T(ALS P171H, R172S mutant) constructed in Example 7, E. coli transformed with pGEX-2T(ALS-P171H, W548L mutant) constructed in Example 8, E. coli transformed with pGEX-2T(ALS-P171H, S627I mutant) constructed in Example 8, and E. coli transformed with pGEX-2T(ALS-P171H, W548L, S627I mutant) constructed in Example 9 were respectively shake-cultured (pre-culture) at 27° C. in 2 ml of LB liquid medium containing ampicillin. These types of E. coli were respectively cultured in 250 ml of LB liquid medium containing ampicillin using 1 ml of the pre-culture solution. After culturing overnight, 1 mM IPTG was added to the media, and then culturing was performed for a further 3 to 4 hours, so that the expression of GST fusion protein was induced. In addition, the cells were stored at −80° C. after washing.
(§5) Preparation and purification of ALS from E. coli were performed by the following method. First, the pellet of the transformant E. coli stored at −80° C. was suspended in ALS extraction buffer (potassium phosphate buffer (pH 7.5) containing 30% glycerol and 0.5 mM MgCl2). Specifically, 2.5 ml of the buffer was added to the pellet obtained from 50 ml of the culture solution. The suspension was subjected to ultrasonication (Heat Systems-Ultrasonics, Sonicator W-225R, micro chip, output control 8, interval of approximately 1 second, twice (40 seconds each)), and subjected to centrifugation at 15000×g, 4° C. for 20 minutes, thereby obtaining the supernatant as a crude enzyme solution.
(§6) Herbicide sensitivity of the wild type ALS protein and that of mutant ALS protein were examined using the 9 types of crude enzyme solutions obtained in Example 10. Herbicide sensitivity test was performed according to procedures almost the same as those in Example 2. However, in this example, reaction temperature was 37° C., reaction time was 30 minutes, and 10 mM valine was added to the reaction solution to inhibit ALS activity derived from E. coli. Further, three types of herbicides, bispyribac-sodium, pyrithiobac-sodium, and pyriminobac, were used as PC herbicides; chlorsulfuron was used as a sulfonylurea herbicide; and imazaquin was used as an imidazolinon herbicide. […]

[2] = molecular target: T2, GST fusion P171H/W548L mutant ALS protein (Oryza sativa subsp. japonica, UniProt Q6K2E8, P171H/W548L); assay: Herbicide sensitivity of ALS protein expressed in E. coli (crude enzyme solution), P171H/W548L; conditions: for RS ratio/ predicted RS ratio / Predicted RS ratio: P171H/W548L mutant; for RS ratio: P171H/W548L mutant vs wild type; for Predicted RS ratio: product of RS ratios of the 1-point mutants; for inhibition at 100 µM: read-out: inhibition % at the highest concentration among the concentrations tested, P171H/W548L mutant, in 100 μM
T2 construct: made in house; host or cells: E. coli, pGEX-2T(ALS-P171H, W548L mutant); crude supernatant
Description: as §1, §2, §3, §4, §5, §6

[3] = molecular target: T3, GST fusion P171H/S627I mutant ALS protein (Oryza sativa subsp. japonica, UniProt Q6K2E8, P171H/S627I); assay: Herbicide sensitivity of ALS protein expressed in E. coli (crude enzyme solution), P171H/S627I; conditions: for RS ratio/ predicted RS ratio / Predicted RS ratio: P171H/S627I mutant; for RS ratio: P171H/S627I mutant vs wild type; for Predicted RS ratio: product of RS ratios of the 1-point mutants
T3 construct: made in house; host or cells: E. coli, pGEX-2T(ALS-P171H, S627I mutant); crude supernatant
Description: as §1, §2, §3, §4, §5, §6

[4] = molecular target: T4, GST fusion P171H/W548L/S627I mutant ALS protein (Oryza sativa subsp. japonica, UniProt Q6K2E8, P171H/S627I/W548L); assay: Herbicide sensitivity of ALS protein expressed in E. coli (crude enzyme solution), P171H/W548L/S627I; conditions: for RS ratio/ predicted RS ratio / Predicted RS ratio: P171H/W548L/S627I mutant; for RS ratio: P171H/W548L/S627I mutant vs wild type; for Predicted RS ratio: product of RS ratios of the 1-point mutants
T4 construct: made in house; host or cells: E. coli, pGEX-2T(ALS-P171H, W548L, S627I mutant); crude supernatant
Description: as §1, §2, §3, §4, §5, §6

[5] = read-out: inhibition % at the highest concentration among the concentrations tested

T3 sequence (Q6K2E8 44-644 P171H/S627I): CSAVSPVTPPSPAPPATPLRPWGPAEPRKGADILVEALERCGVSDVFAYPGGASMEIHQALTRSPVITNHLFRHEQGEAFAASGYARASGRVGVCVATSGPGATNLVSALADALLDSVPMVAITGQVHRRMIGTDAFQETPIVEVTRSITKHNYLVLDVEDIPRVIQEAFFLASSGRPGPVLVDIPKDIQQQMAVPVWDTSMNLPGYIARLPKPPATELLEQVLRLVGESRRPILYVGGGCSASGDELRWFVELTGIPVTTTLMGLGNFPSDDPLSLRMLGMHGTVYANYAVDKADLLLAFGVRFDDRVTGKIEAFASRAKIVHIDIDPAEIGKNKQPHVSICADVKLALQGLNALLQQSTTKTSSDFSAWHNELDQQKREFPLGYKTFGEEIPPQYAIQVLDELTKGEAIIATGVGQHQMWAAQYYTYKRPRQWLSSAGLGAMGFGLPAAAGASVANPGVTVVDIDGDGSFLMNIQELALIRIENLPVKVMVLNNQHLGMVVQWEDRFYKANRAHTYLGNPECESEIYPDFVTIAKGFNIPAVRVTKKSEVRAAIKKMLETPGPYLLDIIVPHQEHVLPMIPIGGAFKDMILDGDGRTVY
T2 sequence (Q6K2E8 44-644 P171H/W548L): as the sequence (Q6K2E8 44-644 P171H/S627I) above, with W505L, I584S counted along it
T4 sequence (Q6K2E8 44-644 P171H/W548L/S627I): as the sequence (Q6K2E8 44-644 P171H/S627I) above, with W505L counted along it
T1 sequence (Q6K2E8 44-644 R172S): as the sequence (Q6K2E8 44-644 P171H/S627I) above, with H128P, R129S, I584S counted along it

SMILES	IC50 [1] [µM]	RS ratio [1]	RS ratio/ predicted RS ratio [2]	RS ratio [2]	Predicted RS ratio [2]	inhibition at 100 µM [2] [%]	IC50 [3] [µM]	RS ratio/ predicted RS ratio [3]	RS ratio [3]	Predicted RS ratio [3]	RS ratio/ predicted RS ratio [4]	RS ratio [4]	Predicted RS ratio [4]	inhibition at 100 µM [4, 5] [%]	inhibition at 500 µM [4, 5] [%]
COc1cc(OC)nc(Oc2cccc(Oc3nc(OC)cc(OC)n3)c2C(=O)O)n1 [bispyribac-sodium]	0.0062	0.98	>3.3	>15000	4500	5	23	10	3700	360	>0.084	>16000	190000	1.1	
COc1nc(C)nc(NC(=O)NS(=O)(=O)c2ccccc2Cl)n1 [chlorsulfuron]	0.011	0.85	>0.18	>7700	65000	16	9.9	3.8	760	200	>0.24		160000		30
CC(C)C1(C)N=C(c2nc3ccccc3cc2C(=O)O)NC1=O (stereo not drawn) [imazaquin]	2.3	0.98 and 1		>45	>68	13	71	3.2	32	10		>45	>460	15	
